Laboratory results: patent publication US20250302990A1, “ENHANCING NON-VIRAL DNA DELIVERY AND EXPRESSION” (Spark Therapeutics, Inc., priority 2022, published 2025)

Assays:
Wild type mice = test: Survival after hFIX DNA-LNP dosing, with or without oral JAK inhibitors (Example 3); type: in vivo, mouse; settings: 30 minutes prior to and days 1, 2, 3 post 2.5 mpk hFIX DNA-LNP (bCKK-E12 LNP), followed out to 30 days, vs untreated
Method: FIG. 6 illustrates survival of WT mice dosed systemically with 2.5 mpk (50 μg) of human factor IX (hFIX) transgene-encoding plasmid DNA encapsulated in lipid nanoparticles; and either untreated or treated with ruxolitinib or baricitinib orally 30 minutes prior to, and on days 1, 2, and 3 post systemic dosing with hFIX transgene encoding plasmid DNA encapsulated in lipid nanoparticles.
Wild type mice were untreated, or treated (n=5 per group) with JAK inhibitors ruxolitinib or baricitinib orally 30 minutes prior to, and days 1, 2, and 3 post systemic dosing with 2.5 mpk (50 μg) of human factor IX (hFIX) transgene-encoding plasmid DNA encapsulated in lipid nanoparticles (DNA-LNP). The LNP used in the study was formulated with bCKK-E12. Survival of mice in each group was followed out to 30 days (FIG. 6).

Wild type C57BL/6 mice = test: Transgenic hFIX protein in blood plasma by ELISA one week post-DNA-LNP, anti-IFNAR and/or baricitinib (Example 4); type: in vivo, mouse; settings: 2.5 mpk hFIX DNA-LNP (bCKK-E12) IV; anti-IFNAR 15 mpk IP 3 hours prior; baricitinib oral 90 minutes prior and daily days 1-6; one week post-dosing
Method: FIG. 7 illustrates FIX protein levels in blood plasma of mice not treated; or treated orally with baricitinib (“Bar”) 90 minutes prior to DNA-LNP dosing, and then daily on days 1-6 post-DNA-LNP dosing. Transgenic hFIX protein in blood plasma of surviving mice was measured by ELISA one-week post-DNA-LNP dosing.
Wild type C57BL/6 mice were untreated, or treated (n=5 per group) once IP with 15 mpk anti-mouse IFNAR blocking antibody (“anti-IFNAR”; clone MAR1-5A3, described in Dunn et al., Nat Immunol. 2005 July; 6(7):722-9) 3 hours prior to systemically (IV tail injections) dosing with 2.5 mpk (50 μg) of human factor IX (hFIX) transgene-encoding plasmid DNA encapsulated in lipid nanoparticles (DNA-LNP). The LNP used in the study was formulated with bCKK-E12. Mice were treated or not treated with the oral JAK inhibitor baricitinib (“Bar”) 90 minutes prior to DNA-LNP dosing, and then daily on days 1-6 post-DNA-LNP dosing. Transgenic hFIX protein in blood plasma of surviving mice was measured by ELISA one-week post-DNA-LNP dosing (FIG. 7).

Compound | survival of mice dosed with DNA-LNP (Wild type mice) | DNA-LNP transgene efficacy (hFIX protein in blood plasma, ELISA) (Wild type C57BL/6 mice)
N#CC[C@H](C1CCCC1)n1cc(-c2[nH]cnc3nccc2-3)cn1 [Ruxolitinib] | dramatically improved survival | –
Baricitinib | dramatically improved survival | did not boost transgene efficacy
